From ChEMBL document CHEMBL3507680, “University of Dundee, Gates Library screen for HepG2 cell viability” come the findings set out here.

A short description of this data set: Human HepG2 cell viability assay in 384 well format. The class given is toxicity, cell-based. Details: dose 125 nL, time 70.5 hour; cytotoxicity at 70.5 h: concentration not given beside the values. Particulars: HepG2 cells, read-out: Inhibition.
As for `O=C(NCC1CCOCC1)[C@@H]1CC[C@@H]2[C@@H](CCN2Cc2ccncc2)O1`, the cytotoxicity at 70.5 h is -0.695%.
The result for `CCn1cc(CN2CCCN(C(=O)c3sccc3C#N)CC2)cn1` reads 37.5%; that for `Cc1oc(-c2ccsc2)nc1CNCCn1cccn1`, -5.13%; that for `CNC(=O)C1CCN(Cc2cc3c(cc2O)CCC3)CC1`, 27%.
In the case of `c1ccc(CNc2ncc(CN3CCCN4CCC[C@H]4C3)cn2)cc1`, the cytotoxicity at 70.5 h is -3.55%.
Consider `CC1CN(C)CCN1C(=O)c1cccn1Cc1cccnc1` (centres undefined), for which the cytotoxicity at 70.5 h was -7.82%.
As for `CCN(C(=O)C1=NN(c2ccccc2)C(=O)CN1)c1ccccc1`, the cytotoxicity at 70.5 h was -2.62%.
The result for `O=S(=O)(C1CC1)N1CCOC2(COCCN(c3ncccn3)C2)C1` (centres undefined) reads -9.98%; that for `CC(C)(CNC1CCCN(Cc2ccccc2F)C1)CN1CCOCC1` (centres undefined), -15.7%.
Regarding `CCc1nccn1CCCNc1nccc(-c2c(C)nn(C)c2C)n1`, the cytotoxicity at 70.5 h is -16.7%.
The result for `Cc1cnc(CN2CCOC(Cn3nc(C)nc3C)C2)cn1` (centres undefined) reads 18.6%.
Then `CCN1CCN(Cc2nc(CC(C)C)no2)CC1`, with 19.9%; and `CCOCc1cncc2c1CCN(S(=O)(=O)c1ccc(C)cc1)C2`, with -2.29%; and `c1cncc(-c2ccc3c(c2)CCC32CCN(Cc3nccs3)CC2)c1`, with -2.27%.
With `Cc1noc(COCC(=O)N2CCCCC2c2nccs2)n1` (centres undefined), the cytotoxicity at 70.5 h was -8.06%.
Then `CCC(Nc1cccc(Oc2ccccn2)c1)C(N)=O` (centres undefined), with -7.08%; and `CSc1ccc(NCC(=O)NC(=O)NCC(F)(F)F)cc1F`, with 19.5%.
As for `Cc1ccc(NC2CCCN(C3Cc4ccccc4C3)C2)nn1` (centres undefined), the cytotoxicity at 70.5 h is -4.1%.
Then `O=S(=O)(c1cccnc1)N1C[C@@H]2CC[C@H](C1)N(Cc1ccccc1)C2`, with -6.7%; and `CC(c1nc(C(C)(C)C)no1)S(=O)(=O)CC(=O)N1CCCC1` (centres undefined), with -2.18%.
Regarding `OC(COCc1ccccc1)CSc1nnc2ccccn12` (centres undefined), the cytotoxicity at 70.5 h is -5.06%.
Then `O=C(c1ccc(N2CCCC2)nc1)N1CCCC(n2cncn2)C1` (centres undefined), with -9%.
The result for `FC(F)(F)c1ccnc(N2CCCCCC2)c1` reads -10.6%.
Then `Cc1cccc(=O)n1CCC(=O)N1CC[C@@](O)(C2CCC2)[C@H](C)C1`, with -9.83%.
In the case of `CC(C)NC(=O)CN1CCN(CC2CCOc3ccccc3C2)CC1` (centres undefined), the cytotoxicity at 70.5 h is -7.34%.
The result for `CC1(C)CC1(C(=O)N1CC(c2cccnc2)C1)c1ccc(F)cc1` (centres undefined) reads 29.7%; that for `O=C(Cc1ccccc1)N1CCC2(CC(=O)N(c3ccsc3)C2)C1` (centres undefined), -0.17%.
`O=C(c1ccoc1)N1CCC2(CCC(=O)N2Cc2ccncc2)CC1`: the cytotoxicity at 70.5 h turned out to be 5.56%.
Then `OC1(CNCCc2nc3c(s2)CCCC3)CCNC1` (centres undefined), with -2.83%.
Then `COCC(=O)NCc1cccc(Br)c1`, with 19.4%; and `Cc1nccn1-c1ccc(C(C)NCCc2ccccn2)cc1` (centres undefined), with 0.00833%.
As to `Cc1nn(C)c(C)c1CCC(=O)NCc1cccnc1OC1CCCC1`, the cytotoxicity at 70.5 h was -3.92%.
With `c1ncn(CCNC2CCCN(Cc3noc(C4CC4)n3)C2)n1` (centres undefined), the cytotoxicity at 70.5 h was -11.2%.
Then `N#Cc1ccc(SCCC(=O)NC(N)=O)cc1`, with -12.4%; and `COc1cccc(S(=O)(=O)N2C[C@@H](O)[C@H](N(C)C)C2)c1`, with -15.9%; and `COc1cc2c(cc1-c1nc3c(cnn3C)[nH]1)OCO2`, with 12.3%.
The result for `COC(=O)C(C)(C)NC(=O)c1cnc(C(C)(C)C)s1` reads -1.58%; that for `CC(c1ccon1)N(C)C(=O)C1CCN(C(=O)C2CC2)CC1` (centres undefined), -4.84%; that for `CC(C)C(NC(=O)Nc1ccc(F)cc1)C(=O)N(C)C` (centres undefined), 3.02%.
The result for `COc1cc(CNCc2ccnc(N3CCCCC3)c2)cc(OC)c1` reads 4.65%; that for `CN(C)C(=O)N1CCCC(C(=O)N(C)CCCc2cnn(C)c2)C1` (centres undefined), -11.5%; that for `O=C(c1csnn1)N1CCCC(n2cncn2)C1` (centres undefined), 15.3%.
Turning to `CCOC1COC2(CCN(c3cccc(C)n3)CC2)C1` (centres undefined), the cytotoxicity at 70.5 h is -2.34%.
`CSCCCNC(=O)C1CCC(=O)N(C2CCCC2)C1` (centres undefined): the cytotoxicity at 70.5 h is -3.06%.
The result for `CS(=O)(=O)N1CCCC12CCCN(S(=O)(=O)c1ccc(F)c(F)c1)C2` (centres undefined) reads 2.95%; that for `Cc1nc(C)n(CC2CCCN(CC3CCCCC3)C2)n1` (centres undefined), -1.64%; that for `CSc1ccc(CN(C(=O)c2cc[nH]n2)C2CC2)cc1`, -7.21%.
Then `Cc1nn(C)cc1C(=O)N1CCCC(c2nccn2CC2CCC2)C1` (centres undefined), with -28.4%; and `Cc1oc(C(=O)O)cc1S(=O)(=O)Nc1cccc(Cl)c1F`, with -7.29%.
Then `O=C(Nc1ccc(Br)cc1F)c1ccc(N2CCCCC2)nn1`, with -3.25%; and `O=C(c1nc(=O)[nH][nH]1)N1CCCC(c2cc(C(F)(F)F)[nH]n2)C1` (centres undefined), with 34.5%.
Take `Cc1nc(N[C@H]2COC[C@@H]2N2CCCCC2)c2c(C)nn(C)c2n1`: the cytotoxicity at 70.5 h was -4.88%.
Consider `Cc1nn(C)c(C)c1S(=O)(=O)N1CC[C@H]2O[C@@H](C)C[C@H]2C1`, for which the cytotoxicity at 70.5 h is -8.7%.
For `COc1cc(CNC(C)Cn2cccn2)cc2c1OCCO2` (centres undefined), the cytotoxicity at 70.5 h is -4.44%.
For the compound `CCOC(=O)C1CCCCN1Cc1c[nH]nc1-c1cc2ccccc2o1` (centres undefined), the cytotoxicity at 70.5 h is -7.32%.
The result for `NCCc1c(-c2ccc(F)cc2)[nH][nH]c1=O` reads -3.38%; that for `CNC(=O)c1cn[nH]c1C1(C)CCCN(CC2(O)CCCCC2)C1` (centres undefined), -6.79%; that for `Cc1nc(CO[C@H]2CN(C(=O)c3cccnc3)[C@@H]3COC[C@H]23)cs1`, -6.99%.
With `Cc1noc(COCC(=O)N2CCCC(c3nccs3)C2)n1` (centres undefined), the cytotoxicity at 70.5 h was -6.88%.
Then `CCN(C(C)c1cccc(O)c1)S(=O)(=O)c1cccnc1` (centres undefined), with 5.84%; and `CC1CCN(S(=O)(=O)N2CCn3cccc3C2C)CC1` (centres undefined), with -4.61%.
For the compound `CCN1CCOC(CNCc2cnc(N(CC)CC)s2)C1` (centres undefined), the cytotoxicity at 70.5 h amounted to 5.52%.
For `O=C(c1cccs1)N1CCc2nnc(COc3cncnc3)n2CC1`, the cytotoxicity at 70.5 h stood at 14.1%.
As for `CC(C)Cc1nc(CN2CC(=O)N(C)c3ccccc3C2=O)no1`, the cytotoxicity at 70.5 h turned out to be 2.18%.
On to `CSc1ccccc1NC(=O)CCC(=O)N(C)C1CCN(C)CC1`, for which the cytotoxicity at 70.5 h is -0.551%.
Take `CCCC(=O)N1CCC([C@@H]2C[C@H](C(F)(F)F)n3nc(C)cc3N2)CC1`: the cytotoxicity at 70.5 h is -6.51%.
In the case of `Cc1nc(C2CCCN2C(=O)c2cnns2)no1` (centres undefined), the cytotoxicity at 70.5 h was -8.38%.
Then `CCN1C[C@H]2C3(CCN(C(=O)NC(C)C)CC3)CC[C@@]2(C(=O)NC)C1`, with -11.3%; and `Cc1cc(NCc2ccc(O)cc2)n2nc(C)cc2n1`, with -2.08%; and `CCN1CC2(CNCCN(C(=O)Nc3ccccc3)C2)CC1=O` (centres undefined), with 2.39%.
The result for `CC(C)(C)c1ccc(=O)n(CN2CCCC(C(F)(F)F)C2)n1` (centres undefined) reads -7.29%.
For the compound `COCC(=O)NCC1CCN(Cc2ccsc2)CC1`, the cytotoxicity at 70.5 h is 33.7%.
For `Cc1csc(N2CCN(Cc3nnsc3Cl)CC2C)n1` (centres undefined), the cytotoxicity at 70.5 h was -16%.
The result for `Fc1ccc2[nH]c(C3CCCN3CCc3ccccn3)nc2c1` (centres undefined) reads -8.26%.
Turning to `CC(C)C1CN(S(=O)(=O)N2CCCC2)CCCN1Cc1ccc(F)cc1` (centres undefined), the cytotoxicity at 70.5 h was -3.07%.
On to `N#Cc1cccc(CN2CC[C@@H]3CN(c4ncccn4)CCO[C@@H]3C2)c1`, for which the cytotoxicity at 70.5 h was 21.7%.
Turning to `CCC(=O)Nc1cc(Cl)ccc1C(=O)N(C)Cc1noc(CC)n1`, the cytotoxicity at 70.5 h is -5.2%.
The result for `CNS(=O)(=O)c1cc(C(=O)NC2CCOc3ccccc32)cc(C)c1C` (centres undefined) reads 8.79%; that for `Cc1ccnc(C2CN(Cc3cnn(-c4ccccc4C(=O)O)c3)C2)n1`, -6.57%; that for `Cc1ccsc1[C@@H]1CCN(C(=O)CCc2n[nH]c(C)c2C)C[C@H]1O`, 0.289%.
As for `CCn1nc(CC(C)C)cc1C(=O)NCCS(=O)(=O)N(C)C`, the cytotoxicity at 70.5 h was 3.89%.
For `CCCn1nc2c(cc1=O)CN(Cc1nc(CCOC)no1)CC2`, the cytotoxicity at 70.5 h was -3.53%.
The result for `O=C(c1nc(=O)[nH][nH]1)N1CCCN(CC2CCCCC2)CC1` reads -7.64%.
Consider `Cc1noc(C)c1CN1CCC(N(C)Cc2nnc(C3CC3)n2C)C1` (centres undefined), for which the cytotoxicity at 70.5 h is -2.84%.
The result for `O=C(c1csc(-c2ccc(C(F)(F)F)cc2)n1)N1CCCNCC1` reads -2.7%; that for `Cc1nc(C)n(CC2CN(c3nnc(C)c(C)c3C#N)CCO2)n1` (centres undefined), 5.76%; that for `Cc1[nH]nc2ncc(C(=O)N3CCN(CC(C)O)CC3)cc12` (centres undefined), -5.99%.
With `Cn1ccc2cc(C(=O)NC3CCOC(C)(C)C3)ccc21` (centres undefined), the cytotoxicity at 70.5 h is 7.49%.
The result for `COCCN1CCOCC12CCN(C(=O)c1c[nH]c3ccccc13)CC2` reads -13.9%; that for `CC(C)(C)OC(=O)NCC1CCN(C(=O)c2cc(Cl)c[nH]2)CC1`, -14.2%; that for `N#CC(NC(=O)CC1CCSCC1)c1cnn(-c2ccccc2)c1` (centres undefined), -3.51%.
Consider `CN1CC(=O)N(c2cccc(F)c2)CC12CCN(CC1CCOCC1)C2` (centres undefined), for which the cytotoxicity at 70.5 h came out at 5.35%.
Then `O=C(c1ccccc1OCC1CC1)N1CCCC(n2ccnc2)C1` (centres undefined), with -9.12%.
Then `CO[C@H]1CCN(Cc2cccs2)[C@@H]2CN(Cc3ccncc3)C[C@H]12`, with -2.84%; and `COc1cc(C)c(-c2ccc(F)c3c2OC(CN)C3)cc1C` (centres undefined), with -0.0935%; and `COc1ccc(OCCc2sc(C3(O)CCCNCC3)nc2C)cc1` (centres undefined), with 2.2%.
`CN1CCN(C(=O)N2CCCC2)Cc2cccnc21`: the cytotoxicity at 70.5 h was -6.35%.
Then `Cn1cc2c(n1)C(CNCc1ccco1)OCC2` (centres undefined), with 19.8%; and `Cc1nnc(N2CC[C@H]3O[C@H](C(=O)NCc4ccccn4)CC[C@H]32)s1`, with -6.62%.
